# Results from publication PMC4767496 (Oncotarget, 2015).
# Assays:
# [1] = Plasma pharmacokinetics of lenvatinib; details: human, in vivo
# Experimental: Tmax, Cmax, Ctrough, AUC0-t, CL (total body clearance from plasma), Vss (volume of distribution at steady […]), and t1/2 were evaluated.
# Baseline and demographic variables including age, gender, race, height, weight, and ECOG performance score were summarized using descriptive statistics. […] Pearson and Spearman correlation coefficients were calculated between pharmacokinetic parameters and serum biomarkers at different time points compared with baseline to examine the correlation between drug exposure and biomarkers. Univariate and multivariate Cox proportional hazards models and log-rank tests were used to examine the relationship between PFS and baseline (and change from baseline) concentrations in angiogenesis and apoptosis biomarkers. Cumulative chi-square test was used to examine the correlation between mutation/serum biomarkers and best overall response. Pearson and Spearman correlation coefficients were also calculated between percent MTS (defined as percent change in sum of longest diameter from baseline to nadir using RECIST criteria) and serum biomarkers at different time points compared with baseline.
# solid-tumor patients = details: phase 1 studies; cited from earlier work
# metastatic melanoma = details: 38 or 120 patients, phase 3 trial, metastatic melanoma progressed after ipilimumab; cited from earlier work
Molecule,"AUC(0-t) ([1]; Geometric mean (%CV), DL1 lenvatinib 20 mg + TMZ 100 mg/m2, Cycle 1/Day 1, n = 6) [ng·h/mL]","AUC(0-t) ([1]; Geometric mean (%CV), DL1 lenvatinib 20 mg + TMZ 100 mg/m2, Cycle 2/Day 1, n = 4) [ng·h/mL]","AUC(0-t) ([1]; Mean (SD), DL3 lenvatinib 24 mg + TMZ 150 mg/m2, Cycle 1/Day 1, n = 22) [ng·h/mL]","AUC(0-t) ([1]; Mean (SD), DL3 lenvatinib 24 mg + TMZ 150 mg/m2, Cycle 2/Day 1, n = 18) [ng·h/mL]","Tmax ([1]; Median tmax, range across the cohorts) [h]",Maximum tolerated dose (MTD) (solid-tumor patients) [mg/day],Objective response rate (metastatic melanoma) [%]
COc1cc2nccc(Oc3ccc(NC(=O)NC4CC4)c(Cl)c3)c2cc1C(N)=O [Lenvatinib],3120,4120,3940,4740,1 to 8,25,
nivolumab: anti-PD1 receptor immune checkpoint inhibitor monoclonal antibody,,,,,,,31.7
